≈ marks a conversion by molar mass, not a printed value.

Assay [1] concerns PCA (homologous passive cutaneous anaphylaxis) in rat. As to the kind of experiment: Inhibitory activity against PCA in rat. The class given is in vivo, rat (male Slc: Wistar). The note with it: 5 mg/kg oral, 1 hour before antigen challenge; for inhibition in vivo at 5 mg/kg: Rattus norvegicus, read-out: Inhibition rate against PCA. Here is the method: An anti-dinitrophenylated-ovalbumin (hereinafter referred to as "anti-DNP-OVA") rat antiserum having 800 of PCA titer in homologous passive cutaneous anaphylaxis reaction in rats for 48 hours, was diluted 200 times with physiological saline, and diluted antiserum was injected intradermally into back of groups of 5 male Slc: Wistar rats weighing 130-150 g in a volume of 50 μl/site to be passively sensitized. After 48 hours, 0.6 ml of 1% (w/v) Evans blue solution containing 1.5 mg of antigen DNP-OVA was administered intravenously into the tail. Thirty minutes later, the rats were bled to death and skin of the rats was removed. According to the method of Katayama et al [Microbiol. […] The test compound was suspended in 0.5% (w/v) aqueous solution of carboxymethylcellulose (hereinafter referred to as "CMC"), the suspension was administered orally in a ratio of 5 mg/kg 1 hour before challenging an antigen.
Inhibition rate against PCA was calculated according to the following equation. [formula] M: Amount of leaked pigment in antibody-sensitized site under administration of CMC without the test compound
S: Amount of leaked pigment in antibody-sensitized site under administration of the test compound in CMC
B: Amount of leaked pigment in antibody-nonsensitized site

The subject of assay [2] is smooth musculus trachealis. As to the kind of experiment: Relaxant activity of smooth musculus trachealis in guinea pig. Details: species or system guinea pig (male Hartley). As to conditions: Cavia porcellus; tracheal chain strips, 37° C.; read-out: Concentration for 50% relaxation. The procedure:
Male Hartley guinea pigs weighing 350 to 550 g were bleed to death, and immediately the tracheae were extirpated. According to the method of Takagi et al [cf. Chem. Pharm. Bull., 8, 716 (1958)], tracheal chain strips was prepared, and the sample was suspended on Magnus apparatus under addition of load of 0.5 g. The test was carried out at 37° C. of liquid temperature. After position of tonus was examined with histamine (10^-6 g/ml) and isoproterenol (10^-7 g/ml), the test compound dissolved in a mixture of dimethyl sulfoxide and physiological saline was added thereto, and the test compound was investigated with respect to the effect on smooth musculus trachealis. Theophylline was used as a positive comparative drug. The relaxation and the contraction of smooth musculus trachealis were recorded on servocorder (SR 6342: commercially available from Watanabe Instruments Corp.) by connecting Isotonic Transducer (TD-1125: commercially available from Nihon Kohden Kogyo Co., Ltd.) to a balancing box.

Assay [3] has as its system histamine release from rat mast cell. As to the kind of experiment: Inhibitory activity against histamine release from rat mast cell. The class given is cell-based. The note with it: 10 μg/ml, read-out: Inhibitory rate against histamine release. Here is the method: An anti-dinitrophenylated-ovalbumin (anti DNP-OVA) rat antiserum having 800 of PCA titer in homologous passive cutaneous anaphylaxis reaction in rats for 48 hours was diluted double with physiological saline, and 1 ml of diluted antiserum was injected intraperitoneally into rats to be passively sensitized. On the next day, peritoneal exudation cell (hereinafter referred to as "PEC") was collected. The collected PEC was washed with a medium containing 0.1% BSA, and 1.5×10^5 of the PEC were added to each test tube. AFter incubation at 37° C. for 10 minutes, 50 μl of test compound solution in a same medium was added thereto. After 30 seconds, 50 μl of antigen solution (DVA-OVA 100 μg/ml) was further added thereto to give the total amount of 500 μl of the reaction mixture, and histamine release reaction was induced. After 10 minutes, 1 ml of physiological saline with cooled Tris buffered solution containing 1 mM EDTA were added thereto to stop the reaction. After centrifugation, the amount of histamine in supernatant was determined by fluorescence method according to the method of Shore et al [cf. J. Pharmacol. Exp. Ther., 127, 182 (1959)]. Inhibition rate against histamine release was calculated according to the following equation.
Inhibition rate against histamine release [formula] M: Amount of histamine in supernatant under addition of antigen and non-addition of test compound
S: Amount of histamine in supernatant under addition of antigen and test compound
B: Amount of histamine in supernatant under non-addition of antigen and test compound.
The test compound was used in a concentration of 10 μg/ml.

A further assay deals with T1, 5-lipoxygenase (Cavia porcellus, UniProt A0A286X958).
T1 construct: 5-lipoxygenase was prepared with polymorphonuclear leukocyte obtained from peritoneal cavity; endogenous in cells; host or cells: guinea pig peritoneal polymorphonuclear leukocytes (casein-elicited)
T1 sequence (A0A286X958 1-674): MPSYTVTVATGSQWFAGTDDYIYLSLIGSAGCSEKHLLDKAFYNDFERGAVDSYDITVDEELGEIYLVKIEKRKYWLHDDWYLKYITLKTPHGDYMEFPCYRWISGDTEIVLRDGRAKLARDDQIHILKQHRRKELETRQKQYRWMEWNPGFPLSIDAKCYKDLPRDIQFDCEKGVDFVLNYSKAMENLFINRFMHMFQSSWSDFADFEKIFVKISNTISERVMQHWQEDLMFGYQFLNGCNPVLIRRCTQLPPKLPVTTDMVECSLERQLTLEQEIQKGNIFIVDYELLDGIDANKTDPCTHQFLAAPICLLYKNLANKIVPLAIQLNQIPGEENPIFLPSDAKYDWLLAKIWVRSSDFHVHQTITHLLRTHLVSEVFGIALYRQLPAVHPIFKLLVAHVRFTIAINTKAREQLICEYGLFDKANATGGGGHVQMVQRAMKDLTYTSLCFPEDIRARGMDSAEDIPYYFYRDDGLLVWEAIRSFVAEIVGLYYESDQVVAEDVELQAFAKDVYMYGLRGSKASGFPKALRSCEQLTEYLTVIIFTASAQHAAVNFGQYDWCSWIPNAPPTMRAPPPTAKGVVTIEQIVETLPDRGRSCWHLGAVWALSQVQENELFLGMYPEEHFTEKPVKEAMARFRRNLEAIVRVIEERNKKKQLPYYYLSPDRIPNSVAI
Nature of the assay: 5-lipoxygenase inhibiting activity in guinea pig. As to conditions: read-out: Inhibition rate against 5-lipoxygenase activity. In kind it is biochemical. The procedure: The test was carried out according to the method of Ochi [cf. J. Biol. Chem., 258, 5754-5758 (1983)]. Two % casein solution in saline was injected intraperitoneally into guinea pigs in an amount of 1/10 of body weight. After 16 hours, 5-lipoxygenase was prepared with polymorphonuclear leukocyte obtained from peritoneal cavity. Test compound and 5-lipoxygenase were pre-incubated at 30° C. for 10 minutes, CaCl2 (calcium chloride) and ^14 C-arachidonic acid were added thereto, and the resulting mixture was incubated for 20 minutes. A mixture of ethyl acetate/methanol/0.2M citric acid=30/4/1 (by volume) was added thereto to stop the reaction. After centrifugation, the organic solvent layer was spotted on a plate for thin layer chromatography and developed. Effect of the test compound was determined from the amount of ^14 C-5-hydroxyeicosatetraenoic acid (hereinafter referred to as "5-HETE") formed from ^14 C-arachidonic acid. Radioactivity of 5-HETE position was measured with a liquid scintillation counter.
Inhibition rate against 5-lipoxygenase activity was calculated according to the following equation.
Inhibition rate against 5-lipoxygenase activity [formula] A: Value of radioactivity in the control group B: Value of radioactivity in the test compound group
Each test compound was used in a concentration of 10 μM.

Consider “5(3-Butyloxyallylaminophenyl)-1H-tetrazole [WP-833, reference compound]”, for which the “Inhibition rate against PCA” value in assay [1] amounted to 42.8 ± 5.1%.

As for `CC(C)c1cccc2[nH]c(=O)c(-c3nnn[nH]3)c-2c1` [Example 1, 5-Iso-propyl-3-(5-tetrazolyl)-1-azaazulane-2-one], the EC50 in assay [2] is 47 µg/mL (≈ 184 µM). The inhibition at 10 µg/mL in assay [3] came out at 78.6%.

On to `CC(C)c1cccc2c(-c3nnn[nH]3)c(=O)[nH]c-2c1` [Example 2, 7-Iso-propyl-3-(5-tetrazolyl)-1-azaazulane-2-one], for which the EC50 in assay [2] was determined as 25 µg/mL (≈ 97.9 µM). Also, the inhibition at 10 µg/mL in assay [3] was determined as 81.4%.

On to `O=c1c(-c2nnn[nH]2)c2cccccc-2n1Cc1ccccc1` [Example 3, 1-Benzyl-3-(5-tetrazolyl)-1-azaazulane-2-one], for which, in assay [1], the inhibition in vivo at 5 mg/kg is 98.6 ± 3.5%. In addition, on 5-lipoxygenase, the inhibition at 10 µM stood at 63.2%. The inhibition at 10 µg/mL in assay [3] amounted to 84.9%.

Consider `CC(C)c1cccc2n(Cc3ccccc3)c(=O)c(-c3nnn[nH]3)c-2c1` [Example 4, 5-Iso-propyl-1-benzyl-3-(5-tetrazolyl)-1-azaazulane-2-one], for which the inhibition in vivo at 5 mg/kg in assay [1] was 78.2 ± 4.1%. In addition, the inhibition at 10 µM on 5-lipoxygenase was -1.1%. Moreover, in assay [2], the EC50 was determined as 6.6 µg/mL (≈ 19.1 µM). Further, in assay [3], the inhibition at 10 µg/mL is 84.4%.

On to `CC(C)c1cccc2n(CCCCCc3ccccc3)c(=O)c(-c3nnn[nH]3)c-2c1` [Example 6, 5-Iso-propyl-1-(5-phenylpentyl)-3-(5-tetrazolyl)-1-azaazulane-2-one], for which the inhibition at 10 µM at 5-lipoxygenase is 27%. Also, the EC50 in assay [2] was determined as 13.1 µg/mL (≈ 32.6 µM). The inhibition at 10 µg/mL in assay [3] turned out to be 6.3%.

As to `CC(C)c1cccc2c(-c3nnn[nH]3)c(=O)n(CCCCCc3ccccc3)c-2c1` [Example 7, 7-Iso-propyl-1-(5-phenylpentyl)-3-(5-tetrazolyl)-1-azaazulane-2-one], the inhibition at 10 µM on 5-lipoxygenase worked out at 60.6%. Further, in assay [3], the inhibition at 10 µg/mL stood at 10.6%.

For `CC(C)c1cccc2n(Cc3ccccn3)c(=O)c(-c3nnn[nH]3)c-2c1` [Example 13, 5-Iso-propyl-1-(2-pyridylmethyl)-3-(5-tetrazolyl)-1-azaazulane-2-one], the inhibition at 10 µM at 5-lipoxygenase was -9.4%. In assay [2], the EC50 worked out at 12.4 µg/mL (≈ 35.8 µM). Further, the inhibition at 10 µg/mL in assay [3] came to 91.5%.

As for `CC(C)c1cccc2c(-c3nnn[nH]3)c(=O)n(C)c-2c1` [Example 16], the EC50 in assay [2] came out at 43 µg/mL (≈ 160 µM). Further, the inhibition at 10 µg/mL in assay [3] turned out to be 88.3%.

As for `CCCCn1c2cccccc-2c(-c2nnn[nH]2)c1=O` [Example 17], the inhibition in vivo at 5 mg/kg in assay [1] is -1.9 ± 9.2%. The inhibition at 10 µg/mL in assay [3] amounted to 89.5%.

As for `CCCCn1c2cc(C(C)C)cccc-2c(-c2nnn[nH]2)c1=O` [Example 18], in assay [2], the EC50 turned out to be 28 µg/mL (≈ 89.9 µM). Further, in assay [3], the inhibition at 10 µg/mL came to 86.9%.

With `CCCCn1c2cccc(C(C)C)cc-2c(-c2nnn[nH]2)c1=O` [Example 19], in assay [2], the EC50 amounted to 44 µg/mL (≈ 141 µM). In addition, the inhibition at 10 µg/mL in assay [3] was determined as 83.4%.

Turning to `CC(C)c1cccc2c(-c3nn[nH]n3)c(=O)n(CCCc3ccccc3)c-2c1` [Example 29], the inhibition at 10 µM on 5-lipoxygenase was found to be 17.3%. The inhibition at 10 µg/mL in assay [3] was 99.5%.

For the compound `O=c1c(-c2nn[nH]n2)c2cccccc-2n1Cc1ccc(C(F)(F)F)cc1` [Example 35], the inhibition at 10 µM on 5-lipoxygenase came to 34.9%. Also, in assay [3], the inhibition at 10 µg/mL is 54.1%.

In the case of `O=C(O)c1ccc(Cn2c3cccccc-3c(-c3nn[nH]n3)c2=O)cc1` [Example 38], at 5-lipoxygenase, the inhibition at 10 µM came to 31.7%. In addition, in assay [3], the inhibition at 10 µg/mL is 24.4%.

Turning to `O=c1c(-c2nn[nH]n2)c2cccccc-2n1CCOc1ccccc1` [Example 43], on 5-lipoxygenase, the inhibition at 10 µM is -7.2%. Also, in assay [3], the inhibition at 10 µg/mL is 65.3%.

In the case of `O=c1c(-c2nn[nH]n2)c2cccccc-2n1CSc1ccccc1` [Example 44], at 5-lipoxygenase, the inhibition at 10 µM is 18.3%. Moreover, the inhibition at 10 µg/mL in assay [3] was determined as 85%.

As for `O=c1c(-c2nn[nH]n2)c2cccccc-2n1CCc1ccc(O)c(O)c1` [Example 46], the inhibition at 10 µM at 5-lipoxygenase is 41.8%. Further, the inhibition at 10 µg/mL in assay [3] stood at 57.6%.

Consider `CC(C)(C)c1cc(C(=O)Cn2c3cccccc-3c(-c3nn[nH]n3)c2=O)cc(C(C)(C)C)c1O` [Example 48], for which the inhibition at 10 µM on 5-lipoxygenase is -1.1%. Further, in assay [3], the inhibition at 10 µg/mL was 10.4%.

`CCCc1c(OCCCn2c3cccccc-3c(-c3nn[nH]n3)c2=O)ccc(C(C)=O)c1O` [Example 49]: the inhibition at 10 µM on 5-lipoxygenase was -2.6%. For the same compound, the EC50 in assay [2] is 42.3 µg/mL (≈ 94.5 µM). Moreover, the inhibition at 10 µg/mL in assay [3] was found to be 62.8%.

For the compound `CC(C)c1cccc2c(-c3nn[nH]n3)c(=O)n(CCCCc3ccccc3)c-2c1` [Example 51], at 5-lipoxygenase, the inhibition at 10 µM was -2.2%. The inhibition at 10 µg/mL in assay [3] is 63.6%.

For the compound `N#Cc1c2cccccc-2nc1N=[N+]=[N-]` [Example 60, 2-Azido-3-cyano-1-azaazulene], the inhibition in vivo at 5 mg/kg in assay [1] is -27 ± 17.7%. The EC50 in assay [2] came out at 52 µg/mL (≈ 266 µM). Moreover, in assay [3], the inhibition at 10 µg/mL is 65.3%.

As for `N#Cc1c2cccccc-2nc1NCC(=O)O` [Example 62, 3-Cyano-2-carboxymethylamino-1-azaazulene], the inhibition in vivo at 5 mg/kg in assay [1] came out at 14 ± 4.3%. For the same compound, the inhibition at 10 µM at 5-lipoxygenase was 5.2%. Moreover, in assay [3], the inhibition at 10 µg/mL came out at 82.5%.

On to `Cc1ccc2c([nH]c(=O)c3c(=O)cc(C(=O)OCCC(C)C)oc32)c1C` [repirinast, Isopentyl 5,6dihydro-7,8-dimethyl-4,5-dioxo-4Hpyrano[3,2c]quinoline2-carboxylate, reference compound], for which the inhibition in vivo at 5 mg/kg in assay [1] came to 36.2 ± 5.8%.

For `Cn1c(=O)c2[nH]cnc2n(C)c1=O` [theophylline, reference compound], in assay [2], the EC50 worked out at 6.8 µg/mL (≈ 37.7 µM).

The values above are taken from patent publication USRE34918E, “Azaazulene compounds which are useful as antiallergic and antiinflammatory agents” (Kaken Pharmaceutical Co., Ltd., priority 1988, dated 1995).
